# Values quoted from earlier work, collected in paper PMC7643960 (PLoS ONE, 2020).
# Test system: healthy horses
# Settings: 1% NVX-207 twice a day for seven consecutive days, eight healthy horses; cited from earlier work
smiles,measurement,value
"C=C(C)[C@@H]1CC[C@]2(C(=O)O)CC[C@]3(C)[C@H](CC[C@@H]4[C@@]5(C)CC[C@H](O)C(C)(C)[C@@H]5CC[C@]43C)[C@@H]12 [betulinic acid, reference compound]",tolerability after topical application,no compound-related local adverse effects
